This is an account of results in US11919902B2, “Aryl-bipyridine amine derivatives as phosphatidylinositol phosphate kinase inhibitors” (HiberCell, Inc., priority 2017, dated 2024).

Assay [1] deals with T1, PIP4K2A (full length protein, SignalChem) (Homo sapiens, UniProt P48426).
T1 construct: 4 nM PIP4K2A (full length protein, SignalChem); purchased SignalChem
T1 sequence (P48426 1-406): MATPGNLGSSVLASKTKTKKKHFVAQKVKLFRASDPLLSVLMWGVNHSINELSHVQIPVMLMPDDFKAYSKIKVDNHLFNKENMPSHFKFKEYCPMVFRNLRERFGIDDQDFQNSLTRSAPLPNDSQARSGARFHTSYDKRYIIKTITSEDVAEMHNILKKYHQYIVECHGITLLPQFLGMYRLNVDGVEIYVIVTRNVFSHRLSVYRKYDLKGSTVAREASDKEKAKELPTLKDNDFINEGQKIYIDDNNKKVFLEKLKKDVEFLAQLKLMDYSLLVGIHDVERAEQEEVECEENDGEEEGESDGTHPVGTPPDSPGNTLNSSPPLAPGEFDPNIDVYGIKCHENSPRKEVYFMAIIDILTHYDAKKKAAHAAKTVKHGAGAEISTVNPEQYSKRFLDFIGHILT
Put plainly: Kinase Assay PIP4K2 A (Sprint); ADP-Glo biochemical assay. The settings on record: Table 2; compounds listed under IC50 range headings. Put shortly:
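ADP-Glo luminescence detected ADP after a 1 h RT reaction started with 60 μM ATP solution. Before that, full-length PIP4K2A (4 nM in mix) with 100 μM PI(5)P diC8 was pre-incubated 15 min with compounds in MOPS buffer pH 7.2, 25 mM MgCl2, 0.005% Tween 20. IC50 derived from % inhibition relative to DMSO over 10 three-fold concentrations.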
For orientation: In ADP-Glo the light output rises with the ADP produced.

Another assay addresses T2, GST tagged PIP4KtypeIIA (Homo sapiens, UniProt P48426).
T2 construct: made in house; host or cells: E. coli
T2 sequence (P48426 1-406): T1 sequence (P48426 1-406)
Nature of the assay: ADP-glo kinase assay PIP4K 2A (PIP4KtypeIIA inhibition assay). The class given is biochemical. The note with it: Table 3; compounds listed under IC50 range headings; 10 uM ATP, 0.5 nM PIP4KIIA. Put shortly:
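Read-out was ADP-Glo luminescence converted to μM ADP, with IC50 plotted as % of no-inhibitor activity against log concentration. Reactions contained 10 μM ATP, 80 μM PI5P with DOPE carrier, and 0.5 nM GST-tagged PIP4KIIA (E. coli-expressed) in pH 7.3 HEPES/MgCl2 buffer with 5% DMSO. Enzyme and compound (≤4.8 μM) were preincubated 1 h at 27 °C before the 1 h reaction.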

A further assay deals with T3, GST tagged PIP4KtypeIIB (Homo sapiens, UniProt P78356).
T3 construct: made in house; host or cells: E. coli
T3 sequence (P78356 1-416): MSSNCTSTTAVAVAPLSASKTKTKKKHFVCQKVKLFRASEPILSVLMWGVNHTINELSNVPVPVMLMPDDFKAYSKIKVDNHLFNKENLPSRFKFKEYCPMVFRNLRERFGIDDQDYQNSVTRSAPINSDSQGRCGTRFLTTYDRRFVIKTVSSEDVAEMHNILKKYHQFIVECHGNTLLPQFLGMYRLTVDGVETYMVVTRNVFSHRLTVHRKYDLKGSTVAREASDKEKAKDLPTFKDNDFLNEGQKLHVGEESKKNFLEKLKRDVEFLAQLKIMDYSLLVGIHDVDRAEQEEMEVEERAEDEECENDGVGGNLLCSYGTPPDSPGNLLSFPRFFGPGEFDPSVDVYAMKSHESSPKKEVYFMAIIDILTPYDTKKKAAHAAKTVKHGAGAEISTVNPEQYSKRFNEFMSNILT
Put plainly: Trans-FI P kinase assay PIP4K2B (PIP4KtypeIIB inhibition assay). The class given is biochemical. The settings on record: Table 4; compounds listed under IC50 range headings; 100 uM GTP, 5 nM PIP4KIIB; read-out: Trans-FI P kinase assays: PIP4K2B IC50. Put shortly: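 Transcreener FI fluorescence, converted to GDP by calibration, tracked product from 5 nM E. coli-expressed GST-PIP4KIIB acting on 80 uM PI5P (DOPE carrier) with 100 uM GTP. Compound (top 4.8 uM final, 5% DMSO) was preincubated 1 h at 27 C before the 2 h reaction; IC50 fitted from residual activity.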

Some results are limits rather than exact numbers.

As usually defined, the IC50 is the concentration that inhibits the measured activity by half. `CN(C)C(=O)c1ccc(-c2cc(-c3[nH]nc4ncncc34)cnc2N)nc1` [Example 214, 2′-amino-N,N-dimethyl-5′-(2H-pyrazolo[3,4-d]pyrimidin-3-yl)-[2,3′-bipyridine]-5-carboxamide]: the IC50 (in assay [1]; against GST tagged PIP4KtypeIIA; at GST tagged PIP4KtypeIIB) was 100 to 1000 nM each time.

For `O=C1CCCN1c1ccc(-c2cncc(-c3ccnc4[nH]ncc34)c2)cc1` [Example 215, 1-(4-(5-(2H-pyrazolo[3,4-b]pyridin-4-yl)pyridin-3-yl)phenyl)pyrrolidin-2-one], the results for the IC50 (in assay [1]; at GST tagged PIP4KtypeIIA; on GST tagged PIP4KtypeIIB) were 5 to 100 nM, 100 to 1000 nM and 100 to 1000 nM, respectively.

For `CN(C)C(=O)c1ccc(-c2cc(-c3cc(Nc4cccc(N)c4)ncn3)cnc2N)nc1` [Example 216, 2′-amino-5′-(6-((3-aminophenyl)amino)pyrimidin-4-yl)-N,N-dimethyl-[2,3′-bipyridine]-5-carboxamide], the IC50 (in assay [1]; against GST tagged PIP4KtypeIIA; at GST tagged PIP4KtypeIIB) was 100 to 1000 nM throughout.

Consider `CN(C)C(=O)c1ccc(-c2cc(-c3cc(N)ncn3)cnc2N)nc1` [Example 217, 2′-amino-5′-(6-aminopyrimidin-4-yl)-N,N-dimethyl-[2,3′-bipyridine]-5-carboxamide], for which the IC50 (in assay [1]; against GST tagged PIP4KtypeIIA; at GST tagged PIP4KtypeIIB) was 100 to 1000 nM throughout.

`Cn1ncc2c(-c3cncc(-c4ccc(N5CCCC5=O)cc4)c3)ccnc21` [Example 218, 1-(4-(5-(1-methyl-1H-pyrazolo[3,4-b]pyridin-4-yl)pyridin-3-yl)phenyl)pyrrolidin-2-one]: the IC50 in assay [1] lay within 5 to 100 nM; against GST tagged PIP4KtypeIIA it was 100 to 1000 nM; on GST tagged PIP4KtypeIIB it was 100 to 1000 nM.

With `CN(C)C(=O)c1ccc(-c2cc(-c3cc(Nc4cccc(NC(=O)c5cccc(N)c5)c4)ncn3)cnc2N)nc1` [Example 219, 2′-amino-5′-(6-((3-(3-aminobenzamido)phenyl)amino)pyrimidin-4-yl)-N,N-dimethyl-[2,3′-bipyridine]-5-carboxamide], the IC50 in assay [1] was 100 to 1000 nM; on GST tagged PIP4KtypeIIA, 1000 to 2500 nM; on GST tagged PIP4KtypeIIB it was 100 to 1000 nM.

As for `O=C1CCCN1c1ccc(-c2cncc(-c3ccnc4cn[nH]c34)c2)cc1` [Example 220, 1-(4-(5-(2H-pyrazolo[4,3-b]pyridin-7-yl)pyridin-3-yl)phenyl)pyrrolidin-2-one], the IC50 (in assay [1]; on GST tagged PIP4KtypeIIA; on GST tagged PIP4KtypeIIB) was 100 to 1000 nM in each case.

`Nc1ncc(-c2ccnc3[nH]c(C(=O)NCc4ccccc4)cc23)cc1-c1ccc(C(=O)NCc2ccccc2)cn1` [Example 221, 4-(2′-amino-5-(benzylcarbamoyl)-[2,3′-bipyridin]-5′-yl)-N-benzyl-1H-pyrrolo[2,3-b]pyridine-2-carboxamide]: the IC50 in assay [1] is below 5000 nM; against GST tagged PIP4KtypeIIA, above 5000 nM; at GST tagged PIP4KtypeIIB, 1000 to 2500 nM.

`O=C1CCCN1c1ccc(-c2cncc(-c3ncnc4n[nH]cc34)c2)cc1` [Example 223, 1-(4-(5-(2H-pyrazolo[3,4-d]pyrimidin-4-yl)pyridin-3-yl)phenyl)pyrrolidin-2-one]: the IC50 (in assay [1]; at GST tagged PIP4KtypeIIA; on GST tagged PIP4KtypeIIB) was 100 to 1000 nM throughout.

Consider `O=C1CCCN1c1ccc(-c2cncc(-c3cc(Cl)nc4n[nH]cc34)c2)cc1` [Example 224, 1-(4-(5-(6-chloro-2H-pyrazolo[3,4-b]pyridin-4-yl)pyridin-3-yl)phenyl)pyrrolidin-2-one], for which the IC50 in assay [1] lay within 5 to 100 nM; against GST tagged PIP4KtypeIIA it was 10 to 100 nM; on GST tagged PIP4KtypeIIB, 10 to 100 nM.

Consider `Cc1nc(-c2cncc(-c3ccc(N4CCCC4=O)cc3)c2)c2cn[nH]c2n1` [Example 225, 1-(4-(5-(6-methyl-2H-pyrazolo[3,4-d]pyrimidin-4-yl)pyridin-3-yl)phenyl)pyrrolidin-2-one], for which the IC50 (in assay [1]; against GST tagged PIP4KtypeIIA; at GST tagged PIP4KtypeIIB) was 100 to 1000 nM each time.

As to `CN(C)C(=O)c1cnc2n[nH]c(-c3cncc(-c4ccc(N5CCCC5=O)cc4)c3)c2c1` [Example 227, N,N-dimethyl-3-(5-(4-(2-oxopyrrolidin-1-yl)phenyl)pyridin-3-yl)-2H-pyrazolo[3,4-b]pyridine-5-carboxamide], the IC50 in assay [1] lay within 5 to 100 nM; against GST tagged PIP4KtypeIIA, 100 to 1000 nM; on GST tagged PIP4KtypeIIB, 100 to 1000 nM.

Take `CN(C)C(=O)c1cnc2c(c1)c(-c1cncc(-c3ccc(N4CCCC4=O)cc3)c1)nn2C` [Example 231, N,N,1-trimethyl-3-(5-(4-(2-oxopyrrolidin-1-yl)phenyl)pyridin-3-yl)-1H-pyrazolo[3,4-b]pyridine-5-carboxamide]: the IC50 in assay [1] was 100 to 1000 nM; on GST tagged PIP4KtypeIIA, 100 to 1000 nM; on GST tagged PIP4KtypeIIB it was 1000 to 2500 nM.

Turning to `CN(C)C(=O)c1cc2c(-c3cncc(-c4ccc(N5CCCC5=O)cc4)c3)ccnc2[nH]1` [Example 241, N,N-dimethyl-4-(5-(4-(2-oxopyrrolidin-1-yl)phenyl)pyridin-3-yl)-1H-pyrrolo[2,3-b]pyridine-2-carboxamide], the IC50 was 5 to 100 nM in assay [1], 10 to 100 nM on GST tagged PIP4KtypeIIA and 10 to 100 nM at GST tagged PIP4KtypeIIB.

Take `Cn1ccc2c(-c3cncc(-c4ccc(N5CCCC5=O)cc4)c3)cn(C)c2c1=O` [Example 243, 1,6-dimethyl-3-(5-(4-(2-oxopyrrolidin-1-yl)phenyl)pyridin-3-yl)-1,6-dihydro-7H-pyrrolo[2,3-c]pyridin-7-one]: the IC50 (in assay [1]; at GST tagged PIP4KtypeIIA; on GST tagged PIP4KtypeIIB) was 100 to 1000 nM throughout.

In the case of `Cc1c(-c2cncc(-c3ccc(N4CCCC4=O)cc3)c2)c2cc(C(=O)N(C)C)cnc2n1C` [Example 249, N,N,1,2-tetramethyl-3-(5-(4-(2-oxopyrrolidin-1-yl)phenyl)pyridin-3-yl)-1H-pyrrolo[2,3-b]pyridine-5-carboxamide], the figures for the IC50 (in assay [1]; on GST tagged PIP4KtypeIIA; at GST tagged PIP4KtypeIIB) were 5 to 100 nM, 100 to 1000 nM and 100 to 1000 nM, respectively.

Take `Cc1[nH]c2ncc(C(=O)N(C)C)cc2c1-c1cncc(-c2ccc(N3CCCC3=O)cc2)c1` [Example 250, N,N,2-trimethyl-3-(5-(4-(2-oxopyrrolidin-1-yl)phenyl)pyridin-3-yl)-1H-pyrrolo[2,3-b]pyridine-5-carboxamide]: the IC50 in assay [1] fell in the range of 5 to 100 nM; on GST tagged PIP4KtypeIIA it was 100 to 1000 nM; on GST tagged PIP4KtypeIIB, 100 to 1000 nM.

`COc1cc(-c2cncc(-c3ccc(N4CCCC4=O)cc3)c2)c2c[nH]nc2n1` [Example 257, 1-(4-(5-(6-methoxy-2H-pyrazolo[3,4-b]pyridin-4-yl)pyridin-3-yl)phenyl)pyrrolidin-2-one]: the IC50 (in assay [1]; on GST tagged PIP4KtypeIIA; at GST tagged PIP4KtypeIIB) was 100 to 1000 nM in each case.

As for `COc1ncc(-c2cnc(N)c(-c3ccc(N4CCCC4=O)cc3)c2)c2cn[nH]c12` [Example 258, 1-(4-(2-amino-5-(7-methoxy-2H-pyrazolo[3,4-c]pyridin-4-yl)pyridin-3-yl)phenyl)pyrrolidin-2-one], the results for the IC50 (in assay [1]; against GST tagged PIP4KtypeIIA; on GST tagged PIP4KtypeIIB) were 5 to 100 nM, 100 to 1000 nM and 100 to 1000 nM, respectively.

Consider `O=C1CCCN1c1ccc(-c2cncc(-c3cc(C4CC4)nc4n[nH]cc34)c2)cc1` [Example 267, 1-(4-(5-(6-cyclopropyl-2H-pyrazolo[3,4-b]pyridin-4-yl)pyridin-3-yl)phenyl)pyrrolidin-2-one], for which the IC50 lay within 5 to 100 nM in assay [1], 100 to 1000 nM on GST tagged PIP4KtypeIIA and 100 to 1000 nM at GST tagged PIP4KtypeIIB.

Take `O=C1CCCN1c1ccc(-c2cncc(-c3c(OC4CCOCC4)cnc4[nH]ccc34)c2)cc1` [Example 268, 1-(4-(5-(5-((tetrahydro-2H-pyran-4-yl)oxy)-1H-pyrrolo[2,3-b]pyridin-4-yl)pyridin-3-yl)phenyl)pyrrolidin-2-one]: the IC50 is 1000 to 2500 nM in assay [1], above 5000 nM against GST tagged PIP4KtypeIIA and 1000 to 2500 nM on GST tagged PIP4KtypeIIB.
